PubChem BioAssay (NCI)
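Values below derive from 48-hour exposures of cells grown in 96-well plates, with endpoints linearly interpolated between the two concentrations bracketing the appropriate inhibition level. TGI denotes the concentration required for complete inhibition of growth.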

How the values were obtained:
Experiment in all cases: NCI tumour cell line growth inhibition, 48 h
[1] = tested on: EKVX NSCLC
[2] = tested on: HCT-116 colon
[3] = tested on: HL-60(TB) leukemia
[4] = tested on: HS 578T breast
[5] = tested on: M14 melanoma
[6] = tested on: NCI-H226 lung
[7] = tested on: RPMI-8226 leukemia
[8] = tested on: RXF 393 renal
[9] = tested on: SF-268 CNS
[10] = tested on: SF-295 CNS
[11] = tested on: SF-539 CNS
[12] = tested on: SK-MEL-5 melanoma
[13] = tested on: TK-10 renal
[14] = tested on: U251 CNS
[15] = tested on: COLO 205 colon
[16] = tested on: SN12C renal
[17] = tested on: SNB-19 CNS
[18] = tested on: SNB-75 CNS
[19] = tested on: UACC-62 melanoma

Row | SMILES | TGI [1] [µM] | TGI [2] [µM] | TGI [3] [µM] | TGI [4] [µM] | TGI [5] [µM] | TGI [6] [µM] | TGI [7] [µM] | TGI [8] [µM] | TGI [9] [µM] | TGI [10] [µM] | TGI [11] [µM] | TGI [12] [µM] | TGI [13] [µM] | TGI [14] [µM] | TGI [15] [µM] | TGI [16] [µM] | TGI [17] [µM] | TGI [18] [µM] | TGI [19] [µM]
1 | Cc1cc(OCc2nn(CN3CCN(C)CC3)c(=S)n2/N=C/c2ccc(-c3ccc(Cl)cc3Cl)o2)ccc1Cl | > 100 | > 100 | 52.6 | > 100 | > 100 | > 100 | > 100 | 41.3 | > 100 | > 100 | > 100 | > 100 | > 100 | > 100 | – | – | – | – | –
2 | Cc1nc(Nc2ccc(F)cc2)c2sc(=S)n(-c3ccc(F)cc3)c2n1 | 26.2 | 15 | 74.1 | 37.7 | 15.5 | 33.5 | 21.9 | 25.1 | 23 | 27.3 | – | 27.7 | 27.5 | 27.8 | 27.5 | 27 | 27.8 | 29.6 | 29.6
3 | Cc1nn(C(=O)c2ccncc2)c2c1C(c1ccc(Cl)cc1)SC(N)=N2 (centres undefined) | > 10 | > 10 | > 10 | > 10 | > 10 | > 10 | > 10 | > 10 | > 10 | > 10 | > 10 | > 10 | > 10 | – | > 10 | > 10 | > 10 | > 10 | > 10
4 | O=C1CCCCC1=C(I)I | 4.1 | 30.9 | 26.2 | > 100 | 32.3 | 42.7 | 53.4 | 30.5 | 57.2 | 65.8 | 36.6 | 33 | – | 30.2 | 28.8 | 55.6 | 24.9 | 47.1 | 33.9
5 | C=C1CCC2CC1[C@@H](C(=O)c1c[nH]c3ccccc13)NC2(C)C (some centres undefined) | > 37.5 | > 37.5 | > 37.5 | > 37.5 | – | > 37.5 | > 37.5 | > 37.5 | > 37.5 | > 37.5 | > 37.5 | > 37.5 | > 37.5 | > 37.5 | > 37.5 | > 37.5 | – | > 37.5 | > 37.5
6 | C=CCOC1=C(OCC=C)C(C2COC(C)(C)O2)OC1=O (centres undefined) | > 100 | > 100 | > 100 | > 100 | > 100 | > 100 | > 100 | > 100 | > 100 | > 100 | > 100 | > 100 | > 100 | > 100 | > 100 | > 100 | > 100 | > 100 | > 100
7 | COc1cc(C[C@H]2C(=O)OC[C@@H]2Cc2ccc(OC)c(OC)c2)cc(OC)c1 | > 100 | > 100 | 77.1 | > 100 | > 100 | > 100 | > 100 | > 100 | > 100 | > 100 | > 100 | 54.5 | > 100 | > 100 | > 100 | > 100 | > 100 | > 100 | > 100
8 | C(=C\c1nccs1)/c1cccc(/C=C/c2nccs2)n1 | > 50 | > 50 | > 50 | > 50 | > 50 | > 50 | > 50 | > 50 | > 50 | > 50 | > 50 | > 50 | > 50 | > 50 | > 50 | > 50 | > 50 | > 50 | > 50
9 | COc1cc2c(cc1OC)CC(=O)c1cc(OC)c(OC)cc1/C=C\2 | > 12.5 | > 12.5 | 7.05 | > 12.5 | > 12.5 | > 12.5 | > 12.5 | > 12.5 | > 12.5 | > 12.5 | > 12.5 | > 12.5 | > 12.5 | > 12.5 | > 12.5 | > 12.5 | > 12.5 | > 12.5 | > 12.5
10 | CC(C)C1OC2(C)OC(=N)C1(C#N)C(C#N)(C#N)C2C (centres undefined) | 53.4 | 78.2 | 37 | 69.4 | 30.5 | > 100 | – | > 100 | 56.4 | > 100 | 66 | 26.6 | > 100 | 65.7 | 27.6 | 26.8 | – | > 100 | 80.5
11 | C(=Nc1ccc(-c2cc(-c3ccccc3)nc3ccc4ccccc4c23)cc1)c1ccccc1 | 92.8 | > 100 | > 100 | 68.6 | 50.4 | 66.3 | > 100 | 47.9 | > 100 | 48.8 | 66.3 | 42.3 | 74.6 | > 100 | 42.6 | > 100 | 58 | > 100 | 62.1
12 | C=C(C(=O)O)C1CCC(CC/C=C(\C)CC/C=C(\C)CCC=C(C)C)CO1 (centres undefined) | 34.1 | 17.8 | 69.4 | > 100 | 25.5 | 13.1 | – | 29.6 | > 100 | 42.8 | 32.4 | 24.9 | 81.8 | 78.6 | 27.4 | 34.3 | 29.1 | > 100 | > 100
13 | CCN(CC)CCC1CCCCN1CC(=O)N1c2ccccc2NC(=O)c2ccccc21 (centres undefined) | > 100 | > 100 | > 100 | > 100 | > 100 | > 100 | > 100 | > 100 | > 100 | > 100 | > 100 | > 100 | > 100 | > 100 | > 100 | > 100 | > 100 | 92.6 | > 100
